Tests used:
[1] = 1-Octanol/aqueous buffer partition coefficient, logD of the compound at pH 7.4 by chromatographic method based UV-visible detector; format: physicochemical
Glutamate receptor 2 = Glutamate receptor 2 (Homo sapiens, UniProt P42262); test: Displacement of [3H]-HBT1 from His-tagged GluA2-AMPA receptor LBD (unknown origin) in presence of glutamate by scintillation proximity assay
[2] = target: Glutamate receptor ionotropic, NMDA 2A (Homo sapiens, UniProt Q05586+Q12879); test: Positive allosteric modulator activity at GluN2A NMDA receptor (unknown origin) expressed in CHO cells co-expressing GluN1a in the presence of L-glutamate and glycine by Ca2+ influx assay; format: cell-based
Sequence of Glutamate receptor ionotropic, NMDA 2A (Q12879 whole entry, one chain of several): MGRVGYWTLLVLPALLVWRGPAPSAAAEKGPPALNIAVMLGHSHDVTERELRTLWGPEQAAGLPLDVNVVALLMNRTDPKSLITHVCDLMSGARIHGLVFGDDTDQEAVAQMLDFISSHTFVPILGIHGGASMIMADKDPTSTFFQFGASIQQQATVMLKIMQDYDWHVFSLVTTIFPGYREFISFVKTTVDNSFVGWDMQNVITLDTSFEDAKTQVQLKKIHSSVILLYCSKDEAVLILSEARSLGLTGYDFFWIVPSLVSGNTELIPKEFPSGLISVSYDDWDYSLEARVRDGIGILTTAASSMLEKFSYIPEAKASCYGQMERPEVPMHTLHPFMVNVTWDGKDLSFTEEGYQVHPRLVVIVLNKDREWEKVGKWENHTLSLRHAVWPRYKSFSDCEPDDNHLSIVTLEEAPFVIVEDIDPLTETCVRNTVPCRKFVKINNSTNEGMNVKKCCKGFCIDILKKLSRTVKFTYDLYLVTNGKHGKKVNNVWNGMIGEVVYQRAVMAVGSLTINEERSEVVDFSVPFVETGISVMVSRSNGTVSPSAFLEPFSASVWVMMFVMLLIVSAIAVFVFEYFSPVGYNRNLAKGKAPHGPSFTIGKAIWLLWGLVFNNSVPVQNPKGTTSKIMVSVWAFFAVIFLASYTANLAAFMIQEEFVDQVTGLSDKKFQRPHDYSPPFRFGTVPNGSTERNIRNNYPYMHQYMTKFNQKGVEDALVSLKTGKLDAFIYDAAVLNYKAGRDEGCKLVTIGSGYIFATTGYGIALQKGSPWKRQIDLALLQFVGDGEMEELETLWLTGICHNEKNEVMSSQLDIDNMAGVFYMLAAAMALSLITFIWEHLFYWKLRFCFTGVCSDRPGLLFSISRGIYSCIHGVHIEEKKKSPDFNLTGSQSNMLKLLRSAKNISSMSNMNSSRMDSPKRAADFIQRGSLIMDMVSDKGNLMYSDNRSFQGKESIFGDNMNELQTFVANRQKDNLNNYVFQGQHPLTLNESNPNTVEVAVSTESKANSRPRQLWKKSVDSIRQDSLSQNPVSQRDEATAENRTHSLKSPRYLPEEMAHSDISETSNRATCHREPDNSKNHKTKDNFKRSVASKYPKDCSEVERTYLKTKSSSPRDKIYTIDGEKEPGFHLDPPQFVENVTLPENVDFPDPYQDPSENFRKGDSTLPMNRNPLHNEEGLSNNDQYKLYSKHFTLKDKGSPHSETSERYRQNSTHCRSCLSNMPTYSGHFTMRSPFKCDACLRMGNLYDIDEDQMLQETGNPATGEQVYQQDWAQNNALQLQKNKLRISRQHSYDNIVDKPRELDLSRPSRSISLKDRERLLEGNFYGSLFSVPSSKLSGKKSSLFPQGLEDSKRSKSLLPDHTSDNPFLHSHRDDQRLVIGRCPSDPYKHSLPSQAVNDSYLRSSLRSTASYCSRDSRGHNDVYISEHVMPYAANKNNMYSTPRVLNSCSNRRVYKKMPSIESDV

[3] = Metabolic stability in human liver microsomes assessed as clearance at 1 uM incubated for 15 to 30 mins in the presence of NADPH generating system by LC-MS/MS analysis; format: ADME, Microsome; conditions: time 15-30 min, read-out: CLH
[4] = Metabolic stability in rat liver microsomes assessed as clearance at 1 uM incubated for 15 to 30 mins in the presence of NADPH generating system by LC-MS/MS analysis; format: ADME, Microsome; conditions: time 15-30 min, read-out: CLH
[5] = target: Glutamate receptor ionotropic, NMDA 2B (Homo sapiens, UniProt Q05586+Q13224); test: Positive allosteric modulator activity at GluN2B NMDA receptor (unknown origin) expressed in CHO cells co-expressing GluN1a in the presence of L-glutamate and glycine by Ca2+ influx assay; format: cell-based
[6] = target: Glutamate receptor ionotropic, NMDA 2C (Homo sapiens, UniProt Q05586+Q14957); test: Positive allosteric modulator activity at GluN2C NMDA receptor (unknown origin) expressed in CHO cells co-expressing GluN1a in the presence of L-glutamate and glycine by Ca2+ influx assay; format: cell-based
Sequence of Glutamate receptor ionotropic, NMDA 2C (Q14957 whole entry, one chain of several): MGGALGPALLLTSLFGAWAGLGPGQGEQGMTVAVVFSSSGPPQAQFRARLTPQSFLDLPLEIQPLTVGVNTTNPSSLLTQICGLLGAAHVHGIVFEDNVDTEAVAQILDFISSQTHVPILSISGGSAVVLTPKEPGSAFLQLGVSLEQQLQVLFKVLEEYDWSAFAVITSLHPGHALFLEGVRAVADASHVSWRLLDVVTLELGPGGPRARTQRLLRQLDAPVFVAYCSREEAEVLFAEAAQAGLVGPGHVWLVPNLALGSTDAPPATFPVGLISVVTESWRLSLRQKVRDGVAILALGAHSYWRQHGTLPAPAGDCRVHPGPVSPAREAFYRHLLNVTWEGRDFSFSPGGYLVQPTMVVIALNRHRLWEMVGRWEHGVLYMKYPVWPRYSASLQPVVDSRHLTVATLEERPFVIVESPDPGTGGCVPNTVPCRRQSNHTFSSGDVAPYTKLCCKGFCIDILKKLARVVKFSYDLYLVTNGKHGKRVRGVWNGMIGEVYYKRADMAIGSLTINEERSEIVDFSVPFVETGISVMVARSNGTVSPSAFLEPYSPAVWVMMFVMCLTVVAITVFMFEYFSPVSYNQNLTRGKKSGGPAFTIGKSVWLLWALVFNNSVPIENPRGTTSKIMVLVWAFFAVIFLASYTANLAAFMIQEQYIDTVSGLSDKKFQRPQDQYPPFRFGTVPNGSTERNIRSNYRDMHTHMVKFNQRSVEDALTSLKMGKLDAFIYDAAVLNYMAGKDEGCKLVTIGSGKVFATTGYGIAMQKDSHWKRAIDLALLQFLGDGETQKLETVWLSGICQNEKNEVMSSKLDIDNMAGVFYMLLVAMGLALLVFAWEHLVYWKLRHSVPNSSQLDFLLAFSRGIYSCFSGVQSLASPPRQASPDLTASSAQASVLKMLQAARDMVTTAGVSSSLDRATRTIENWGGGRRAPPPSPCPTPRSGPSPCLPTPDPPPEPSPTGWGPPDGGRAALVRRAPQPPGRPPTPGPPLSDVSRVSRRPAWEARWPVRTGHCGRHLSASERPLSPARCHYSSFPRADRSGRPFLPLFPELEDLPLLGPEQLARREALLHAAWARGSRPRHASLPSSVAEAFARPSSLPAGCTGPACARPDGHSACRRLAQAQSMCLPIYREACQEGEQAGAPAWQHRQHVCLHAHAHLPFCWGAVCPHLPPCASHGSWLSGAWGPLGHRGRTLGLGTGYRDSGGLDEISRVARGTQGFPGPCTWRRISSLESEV

[7] = target: Glutamate receptor ionotropic, NMDA 2D (Homo sapiens, UniProt O15399+Q05586); test: Positive allosteric modulator activity at GluN2D NMDA receptor (unknown origin) expressed in CHO cells co-expressing GluN1a in the presence of L-glutamate and glycine by Ca2+ influx assay; format: cell-based
Sequence of Glutamate receptor ionotropic, NMDA 2D (O15399 whole entry, one chain of several): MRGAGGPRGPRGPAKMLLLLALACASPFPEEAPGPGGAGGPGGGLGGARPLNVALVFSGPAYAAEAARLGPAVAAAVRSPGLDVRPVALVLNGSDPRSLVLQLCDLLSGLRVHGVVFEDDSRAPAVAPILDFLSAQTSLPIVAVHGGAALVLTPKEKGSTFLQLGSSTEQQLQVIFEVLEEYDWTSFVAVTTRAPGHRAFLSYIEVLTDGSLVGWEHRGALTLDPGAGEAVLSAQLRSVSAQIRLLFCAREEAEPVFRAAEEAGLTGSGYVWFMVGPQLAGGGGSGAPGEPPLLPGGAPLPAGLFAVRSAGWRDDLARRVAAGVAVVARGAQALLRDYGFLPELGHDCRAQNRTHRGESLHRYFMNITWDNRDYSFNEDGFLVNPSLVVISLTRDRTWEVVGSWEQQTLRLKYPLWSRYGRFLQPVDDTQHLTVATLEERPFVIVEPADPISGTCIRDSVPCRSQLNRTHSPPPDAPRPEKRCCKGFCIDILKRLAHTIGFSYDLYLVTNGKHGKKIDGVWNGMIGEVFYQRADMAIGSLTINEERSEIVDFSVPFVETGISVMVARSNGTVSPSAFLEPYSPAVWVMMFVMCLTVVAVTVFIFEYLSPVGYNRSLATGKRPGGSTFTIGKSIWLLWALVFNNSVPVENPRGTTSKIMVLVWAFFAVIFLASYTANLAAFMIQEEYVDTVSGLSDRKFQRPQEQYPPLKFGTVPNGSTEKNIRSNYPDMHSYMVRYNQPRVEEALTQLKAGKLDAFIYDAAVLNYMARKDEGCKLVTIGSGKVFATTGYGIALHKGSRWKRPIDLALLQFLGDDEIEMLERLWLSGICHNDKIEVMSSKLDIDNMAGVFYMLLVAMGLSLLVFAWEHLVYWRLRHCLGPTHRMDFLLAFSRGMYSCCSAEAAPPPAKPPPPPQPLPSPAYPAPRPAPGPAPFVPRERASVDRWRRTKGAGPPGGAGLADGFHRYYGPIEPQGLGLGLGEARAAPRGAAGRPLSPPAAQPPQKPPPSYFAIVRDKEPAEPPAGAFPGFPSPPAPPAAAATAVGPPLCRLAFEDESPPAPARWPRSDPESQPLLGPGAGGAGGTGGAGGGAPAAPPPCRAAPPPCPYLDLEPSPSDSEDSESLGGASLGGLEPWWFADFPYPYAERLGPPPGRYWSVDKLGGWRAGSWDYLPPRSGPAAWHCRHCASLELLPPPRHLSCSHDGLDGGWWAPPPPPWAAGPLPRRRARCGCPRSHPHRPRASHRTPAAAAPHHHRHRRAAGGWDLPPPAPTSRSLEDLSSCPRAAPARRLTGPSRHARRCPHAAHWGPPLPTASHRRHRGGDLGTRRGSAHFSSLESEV

[8] = Drug concentration in Sprague-Dawley rat plasma at 10 mg/kg, po measured after 0.5 hrs by LC-MS/MS analysis; format: ADME, organism-based
[9] = Drug concentration in Sprague-Dawley rat brain at 10 mg/kg, po measured after 0.5 hrs by LC-MS/MS analysis; format: ADME, organism-based; conditions: read-out: Ct
[10] = Drug concentration in Sprague-Dawley rat plasma at 10 mg/kg, po measured after 1 hrs by LC-MS/MS analysis; format: ADME, organism-based
[11] = Drug concentration in Sprague-Dawley rat brain at 10 mg/kg, po measured after 1 hrs by LC-MS/MS analysis; format: ADME, organism-based; conditions: read-out: Ct
[12] = Drug concentration in Sprague-Dawley rat plasma at 10 mg/kg, po measured after 2 hrs by LC-MS/MS analysis; format: ADME, organism-based
[13] = Drug concentration in Sprague-Dawley rat brain at 10 mg/kg, po measured after 2 hrs by LC-MS/MS analysis; format: ADME, organism-based; conditions: read-out: Ct

Sequence of Glutamate receptor 2 (P42262 whole entry, the tested form may be a part): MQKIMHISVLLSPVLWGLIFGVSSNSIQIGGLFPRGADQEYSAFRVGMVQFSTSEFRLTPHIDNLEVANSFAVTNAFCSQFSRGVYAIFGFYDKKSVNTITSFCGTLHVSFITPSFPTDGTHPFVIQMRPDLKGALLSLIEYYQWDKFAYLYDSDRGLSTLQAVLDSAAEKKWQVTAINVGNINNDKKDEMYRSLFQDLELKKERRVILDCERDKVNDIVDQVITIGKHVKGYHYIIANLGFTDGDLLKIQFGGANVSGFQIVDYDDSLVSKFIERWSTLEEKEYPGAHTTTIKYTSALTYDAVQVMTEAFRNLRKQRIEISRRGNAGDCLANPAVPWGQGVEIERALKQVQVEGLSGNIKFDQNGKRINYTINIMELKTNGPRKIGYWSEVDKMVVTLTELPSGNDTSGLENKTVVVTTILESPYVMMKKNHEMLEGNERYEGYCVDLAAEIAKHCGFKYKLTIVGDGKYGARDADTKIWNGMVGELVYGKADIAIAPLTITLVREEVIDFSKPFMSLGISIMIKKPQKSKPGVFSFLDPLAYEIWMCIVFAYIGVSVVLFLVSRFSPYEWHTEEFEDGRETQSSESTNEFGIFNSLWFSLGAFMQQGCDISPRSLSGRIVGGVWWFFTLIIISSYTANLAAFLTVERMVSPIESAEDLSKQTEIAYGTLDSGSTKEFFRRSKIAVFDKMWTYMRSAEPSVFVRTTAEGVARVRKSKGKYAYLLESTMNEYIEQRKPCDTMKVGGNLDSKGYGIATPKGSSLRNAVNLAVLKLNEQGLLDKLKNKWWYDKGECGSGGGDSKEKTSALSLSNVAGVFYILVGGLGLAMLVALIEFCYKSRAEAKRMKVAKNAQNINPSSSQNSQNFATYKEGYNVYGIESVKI

chromatographic logD [1]	IC50 (Glutamate receptor 2) [µM]	EC50 [2] [µM]	microsomal CLint at 1 µM [3] [µL/min/mg]	microsomal CLint at 1 µM [4] [µL/min/mg]	Compound	also measured
2.4	16	–	–	–	CCN(Cc1cc(C)n(C[C@@H]2C[C@H]2C#N)c(=O)c1)c1ccc(F)cc1	–
2.9	2.3	13	–	–	CCN(Cc1cc(=O)n(CC2CC2)c(C)n1)c1ccc(F)cc1	–
2.4	> 30	> 30	15	26	Cc1cccc(Cc2cc(C)n(C[C@H]3C[C@@H]3C#N)c(=O)c2)c1	–
2.8	0.75	–	–	–	CCN(Cc1ccn(CC2CC2)c(=O)c1)c1ccc(F)cc1	–
3.2	9.9	–	–	–	CCN(Cc1cc(C)n(CC2CC2)c(=O)c1)c1ccc(F)cc1	–
3.6	1.2	23	–	–	CCN(Cc1cc(C)n(CC2CCC2)c(=O)c1)c1ccc(F)cc1	–
2.4	11	–	48	> 768	CCN(Cc1cc(C)n(C[C@H]2C[C@@H]2C#N)c(=O)c1)c1ccc(F)cc1	–
3.5	5.5	> 30	–	–	CCN(Cc1cc(C)n(Cc2ccccc2)c(=O)c1)c1ccc(F)cc1	–
2.3	> 30	–	–	75	Cc1cc(Cc2cccc(Cl)c2)cc(=O)n1C[C@H]1C[C@@H]1C#N	–
1.6	> 30	–	28	14	Cc1cc(Cn2nc(Br)cc2Cl)cc(=O)n1C[C@H]1C[C@@H]1C#N	EC50 [5]: > 30 µM; EC50 [6]: 1.9 µM; EC50 [7]: 5.1 µM; concentration at 0.5 h [8]: 926 ng/mL; concentration at 0.5 h [9]: 262 ng/g; concentration at 1 h [10]: 590 ng/mL; concentration at 1 h [11]: 111 ng/g; concentration at 2 h [12]: 362 ng/mL; concentration at 2 h [13]: 71 ng/g
2.4	4.3	> 30	–	–	CCN(Cc1cc(C)n(CCCC#N)c(=O)c1)c1ccc(F)cc1	–
3.6	–	13	–	–	CCc1cc(CN(CC)c2ccc(F)cc2)cc(=O)n1CC1CC1	–
2.5	> 30	–	24	72	Cc1cc(Cc2cccc(Br)c2)cc(=O)n1C[C@H]1C[C@@H]1C#N	–
1.6	> 30	–	12	22	Cc1cc(Cn2nc(Cl)cc2Cl)cc(=O)n1C[C@H]1C[C@@H]1C#N	–
2.5	2.3	> 30	–	–	CCN(Cc1cc(C)n(CC2(C#N)CC2)c(=O)c1)c1ccc(F)cc1	–
4	> 30	12	–	–	CCCc1cc(CN(CC)c2ccc(F)cc2)cc(=O)n1CC1CC1	–
1.4	> 30	–	–	–	Cc1cc(Cn2nc(C(F)F)cc2Cl)cc(=O)n1C[C@H]1C[C@@H]1C#N	–
1.8	21	–	2	22	Cc1cc(Cn2nc(C(F)(F)F)cc2Cl)cc(=O)n1C[C@H]1C[C@@H]1C#N	–
–	10	–	–	–	CCN(Cc1cc(C)n(C[C@@H]2C[C@H]2C#N)c(=O)c1)c1ccc(F)cc1 (racemic)	–

Reference: ChEMBL document CHEMBL5241126, “Design and synthesis of 6-methylpyridin-2-one derivatives as novel and potent GluN2A positive allosteric modulators for the treatment of cognitive impairment” (Bioorg Med Chem, 2023)
